# Results published in patent US11529332B2 (priority 2017, dated 2022).
# Read-outs that look alike come from different tables or passages of the source.
# Tests used:
# MYXV [1] = assay: MYXV-GFP infection rate in RK13 cells (high content microscopy); settings: for Inhibition of MYXV infection rate (in words): RK13 cells; for IC50: MYXV in RK13 cells
# Procedure: RK13 (rabbit epitelial kidney) cells were used for MYXV infection assay.
# Cells were grown in 200 μL Dulbecco's Modified Eagle's medium (DMEM) without phenol red (Sigma-Aldrich), 10% SVF, Pen-strep, 1× sodium pyruvate, 1× Glutamax.
# RK13 cells at MOI 0.5 48 h post-infection (PI) are fixed with Formalin 10 min at room temperature. Wash with 200 μL PBS and 100 μL PBS/Hoechst 33342 (1/1000) per well. 96 well plates are kept at 4° C. in the dark until data acquisition. Image acquisition and analysis for high content quantification is performed on a Thermo Cellomics Arrayscan VTI microscope using a modified compartmental analysis algorithm.
# RK13 cells for the toxicity study and RK13 cells at MOI 0.01 6 days PI are fixed and image acquisition and analysis are performed as previously described.
# On 48 h and 6d post-infection, data acquisition was done by high content microscopy to calculate infection level according to compound concentration.
# MYXV [2] = assay: Lysis plaque analysis in RK13 infected with MYXV; format: cell-based, Myxoma virus; settings: 6d PI
# Procedure: Lysis plaque analysis was carried out in RK13 infected with MYXV 6d PI. Lysis plaques area and number of lysis plaques were assessed directly on microscope pictures (FIG. 4).
# [3] = read-out: IC50 (48 h PI), MOI 0.5, 48 h post-infection
# [4] = read-out: IC50 (6 d PI), MOI 0.01, 6 days post-infection
SMILES,Inhibition of MYXV infection rate (in words) (MYXV [1]),IC50 (MYXV [1]; [3]),IC50 (MYXV [1]; [4]),CC50 (RK13 cells),Area in cm^2 of lysis plaques (MYXV [2]; concentration 0.37 μM),Number of lysis plaques (MYXV [2]; concentration 0.37 μM),Area in cm^2 of lysis plaques (MYXV [2]; concentration 0.75 μM),Number of lysis plaques (MYXV [2]; concentration 0.75 μM),Number of lysis plaques (MYXV [2]; concentration 1.5 μM),Number of lysis plaques (MYXV [2]; concentration 3.1 μM)
"O=[N+]([O-])c1ccc(-c2c3nc(c4ccc([nH]4)c(-c4ccc([N+](=O)[O-])cc4)c4ccc([nH]4)c(-c4ccc([N+](=O)[O-])cc4)c4ccc2[nH]4)C=C3)cc1 [TpNO2Cor, 5,10,15-Tris(4-nitrophenyl)corrole]",better in vitro anti-MYXV effect than FNO2Cor,430 nM,200 nM,4360 nM,9 cm^2,4,3.4 cm^2,6.7,2.7,0
"O=[N+]([O-])c1ccc(F)c(-c2c3nc(c4ccc([nH]4)c(-c4cc([N+](=O)[O-])ccc4F)c4ccc([nH]4)c(-c4cc([N+](=O)[O-])ccc4F)c4ccc2[nH]4)C=C3)c1 [FNO2Cor, 5,10,15-Tris(2-fluoro-5-nitrophenyl)corrole]",,1330 nM,500 nM,3740 nM,8 cm^2,5,3.4 cm^2,6,1.3,0
"Fc1c(F)c(F)c(-c2c3nc(c4ccc([nH]4)c(-c4c(F)c(F)c(F)c(F)c4F)c4ccc([nH]4)c(-c4c(F)c(F)c(F)c(F)c4F)c4ccc2[nH]4)C=C3)c(F)c1F [TPFCor, 5,10,15-Tris(pentafluorophenyl)corrole]",better in vitro anti-MYXV effect than FNO2Cor,270 nM,120 nM,6680 nM,6 cm^2,6.7,,6,3.3,4
